Some test systems named below: HCT-116 colon; SK-MEL-28 melanoma; MOLT-4 leukemia; HOP-92 NSCLC; 786-0 renal; NCI-H23 lung; LOX IMVI melanoma; SNB-75 CNS; UO-31 renal.
Common to all, as to experiment: NCI anticancer screen, dose series, 48 h

The structures appear in SMILES notation.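 A five-concentration, 48-hour dose response in 96-well plates underlies each endpoint, interpolated linearly between surrounding concentrations. Here, GI50 denotes the concentration required for 50% inhibition of growth. TGI: total growth inhibition.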

Consider `C1C[OH+]CC[OH+]CCNCC[OH+]CC[OH+]CCN1.N.[Cl-].[Pt+4]`, for which the GI50 in the experiment with HCT-116 colon is 10.1 µM; with SK-MEL-28 melanoma, 11.1 µM; with MOLT-4 leukemia, 3.89 µM; in the experiment with HOP-92 NSCLC, 16.1 µM; in the experiment on 786-0 renal, 3.98 µM; in the experiment on NCI-H23 lung, 1.8 µM. In addition, the results for the GI50 in the experiment on LOX IMVI melanoma, with SNB-75 CNS and in the experiment on UO-31 renal were 7.66 µM, 3.59 µM and 12.2 µM, respectively. In addition, the TGI with HCT-116 colon stood at 65.8 µM; in the experiment on SK-MEL-28 melanoma, 35.7 µM; with MOLT-4 leukemia, 36.3 µM; in the experiment with HOP-92 NSCLC it was 58.3 µM; in the experiment on 786-0 renal, 39.2 µM; with NCI-H23 lung, 12 µM. Further, the TGI in the experiment on LOX IMVI melanoma stood at 28.4 µM; in the experiment with SNB-75 CNS, 20.2 µM; in the experiment with UO-31 renal it was 32 µM.
Consider `CCCNC1=C(C(=O)OCC)C(=O)CO1`, for which the TGI in the experiment with HCT-116 colon, in the experiment on SK-MEL-28 melanoma, in the experiment with MOLT-4 leukemia, with HOP-92 NSCLC, in the experiment on 786-0 renal and with NCI-H23 lung was over 100 µM throughout. The TGI in the experiment on LOX IMVI melanoma, in the experiment with SNB-75 CNS and in the experiment on UO-31 renal was over 100 µM each time.
With `CCCCCCCCCCCC(=O)OCC1OC(n2cc(F)c(=O)[nH]c2=O)C(NC(=O)OCc2ccccc2)C(OC(=O)CCCCCCCCCCC)C1O` (centres undefined), the TGI in the experiment with HCT-116 colon, in the experiment on SK-MEL-28 melanoma, in the experiment on MOLT-4 leukemia, with HOP-92 NSCLC, with 786-0 renal and in the experiment with NCI-H23 lung was over 100 µM throughout. The TGI with LOX IMVI melanoma, in the experiment on SNB-75 CNS and with UO-31 renal was over 100 µM in each case.
In the case of `O=[N+]([O-])C1C2C=CC(C2)[C@H]1c1ccco1` (some centres undefined), the TGI in the experiment with HCT-116 colon is over 100 µM; in the experiment with MOLT-4 leukemia, over 100 µM; with HOP-92 NSCLC it was 18.4 µM; in the experiment with 786-0 renal, over 100 µM; with NCI-H23 lung it was 2.36 µM; in the experiment with LOX IMVI melanoma, over 100 µM. Besides, the TGI with SNB-75 CNS and in the experiment on UO-31 renal was over 100 µM throughout.
Consider `O=C(CN1CCOCC1)Nc1nc(-c2ccc(Cl)cc2)cs1`, for which the TGI in the experiment on SK-MEL-28 melanoma is 74.8 µM; in the experiment on MOLT-4 leukemia, 42.6 µM; in the experiment on HOP-92 NSCLC, over 100 µM; in the experiment on 786-0 renal, over 100 µM; with NCI-H23 lung, 40.1 µM; with LOX IMVI melanoma, 58.7 µM. Besides, the TGI stood at 62.6 µM with SNB-75 CNS and 67 µM in the experiment on UO-31 renal.
On to `C[C@@H]1C[C@H]2CC[C@H](O2)[C@H](C)C(=O)O[C@@H](C)C[C@@H]2CC[C@@H](O2)[C@@H](C)C(=O)O[C@H](C)C[C@H]2CC[C@H](O2)[C@H](C)C(=O)O[C@@H](C)C[C@@H]2CC[C@@H](O2)[C@@H](C)C(=O)O1`, for which the TGI with HCT-116 colon is over 100 µM; in the experiment with SK-MEL-28 melanoma, over 100 µM; with MOLT-4 leukemia, 22 µM; with HOP-92 NSCLC, 0.524 µM; in the experiment with 786-0 renal, 41.8 µM; with LOX IMVI melanoma it was 2.82 µM.
In the case of `Cc1ccc(C(=O)c2nnc(C(=O)c3ccc(C)cc3)nn2)cc1`, the TGI with HCT-116 colon, with SK-MEL-28 melanoma, with MOLT-4 leukemia, in the experiment on HOP-92 NSCLC, in the experiment with 786-0 renal and in the experiment with NCI-H23 lung was over 100 µM in each case. The TGI in the experiment with LOX IMVI melanoma was 35.6 µM; in the experiment on SNB-75 CNS, over 100 µM; in the experiment on UO-31 renal it was over 100 µM.
In the case of `NNC(=O)/C(=C/c1ccc(Cl)cc1Cl)NC(=O)c1ccccc1`, the TGI in the experiment with HCT-116 colon, with SK-MEL-28 melanoma, in the experiment on MOLT-4 leukemia, with HOP-92 NSCLC, in the experiment on 786-0 renal and in the experiment on NCI-H23 lung was over 100 µM in each case. Moreover, the TGI with LOX IMVI melanoma, in the experiment on SNB-75 CNS and in the experiment on UO-31 renal was over 100 µM in each case.
As for `CN(C)C(=O)OC(Cn1cncn1)c1ccc(Cl)cc1Cl` (centres undefined), the TGI in the experiment on HCT-116 colon, in the experiment on SK-MEL-28 melanoma, in the experiment with MOLT-4 leukemia, with HOP-92 NSCLC, with 786-0 renal and with NCI-H23 lung was over 100 µM in each case. For the same compound, the TGI in the experiment with LOX IMVI melanoma, in the experiment with SNB-75 CNS and in the experiment with UO-31 renal was over 100 µM each time.
As to `C#CCOCn1cnc2c(Cl)ncnc21`, the TGI in the experiment with HCT-116 colon, in the experiment on SK-MEL-28 melanoma, in the experiment with MOLT-4 leukemia, in the experiment on HOP-92 NSCLC, with 786-0 renal and in the experiment on NCI-H23 lung was over 100 µM in each case. The TGI in the experiment on LOX IMVI melanoma, with SNB-75 CNS and with UO-31 renal was over 100 µM in each case.
Turning to `COc1ccc(OC)c(NC(=O)C2=C(C)NC(C)=C(C(=O)Nc3cc(OC)ccc3OC)C2c2ccccc2)c1`, the TGI with HCT-116 colon, with SK-MEL-28 melanoma, in the experiment on MOLT-4 leukemia, in the experiment on HOP-92 NSCLC, in the experiment with 786-0 renal and in the experiment with NCI-H23 lung was over 100 µM throughout. Also, the TGI in the experiment on LOX IMVI melanoma is over 100 µM; in the experiment on SNB-75 CNS it was 91 µM; in the experiment with UO-31 renal it was over 100 µM.
For the compound `CC1C=C(OC(=O)c2ccccc2)C(=O)C(n2cc(F)c(=O)[nH]c2=O)O1` (centres undefined), the TGI with HCT-116 colon, in the experiment on SK-MEL-28 melanoma, in the experiment with MOLT-4 leukemia, in the experiment with HOP-92 NSCLC, in the experiment on 786-0 renal and in the experiment on NCI-H23 lung was over 100 µM throughout. Also, the TGI with SNB-75 CNS and in the experiment with UO-31 renal was over 100 µM each time.
For `C/C(=N\NS(=O)(=O)c1ccccc1)c1ccc(Cl)c(Cl)c1`, the TGI with HCT-116 colon, in the experiment with SK-MEL-28 melanoma, in the experiment with MOLT-4 leukemia, in the experiment on HOP-92 NSCLC, with 786-0 renal and in the experiment on NCI-H23 lung was over 100 µM in each case. The TGI in the experiment with LOX IMVI melanoma, with SNB-75 CNS and with UO-31 renal was over 100 µM throughout.
In the case of `Cc1ccc(NC(=O)C(=O)C(C#N)c2ccccc2C)cc1C` (centres undefined), the TGI is over 63 µM in the experiment with HCT-116 colon; over 100 µM in the experiment on SK-MEL-28 melanoma; over 100 µM in the experiment with MOLT-4 leukemia; over 100 µM with HOP-92 NSCLC; over 100 µM in the experiment with 786-0 renal; over 100 µM with NCI-H23 lung. The figures for the TGI in the experiment on LOX IMVI melanoma, with SNB-75 CNS and in the experiment on UO-31 renal were over 55.3 µM, over 100 µM and over 100 µM, respectively.

The values are drawn from PubChem BioAssay (NCI).
